Measured values from PMC8822125, “RW-BP100-4D, a Promising Antimicrobial Candidate With Broad-Spectrum Bactericidal Activity” (Frontiers in Microbiology, 2022).
Values after ≈ are worked out from the molar mass of the structure shown. Where a SMILES comes first, the peptide text is derived from it.

Columns and labels:
RAW264.7 cells = conditions: peptide 150 μg/mL, 24 h, WST-1, mean ± SD, three repeats
[1] = system: Escherichia coli ATCC25922; conditions: Table 1; broth microdilution CLSI M100-S25, MH broth, 37°C, 18 h, three independent repeats
[2] = system: Staphylococcus aureus ATCC29213; experiment: MIC/MBC, broth microdilution; type: cell-based; conditions: Table 1; broth microdilution CLSI M100-S25, MH broth, 37°C, 18 h, three independent repeats
MAC-T cells = conditions: peptide 150 μg/mL, 24 h, WST-1, mean ± SD, three repeats
sheep red blood cells = sheep red blood cells in PBS, 37°C, 1 h, OD576, relative to melittin, mean ± SD, three repeats; for Hemolytic rate, 50 μg/mL: 50 μg/mL peptide; for Hemolytic rate, 100 μg/mL: 100 μg/mL peptide; for Hemolytic rate, 150 μg/mL: 150 μg/mL peptide; for Hemolytic rate, 300 μg/mL: 300 μg/mL peptide;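 on all read-outs here: hemolysis expressed in % from supernatant absorbance, with PBS-treated cells as 0% baseline and melittin as 100%, peptide mixed 1:1 with an 8% v/v erythrocyte suspension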
various microorganisms = experiment: MIC/MBC, summary statements over several strains; type: cell-based; conditions: summary of Table 1

Row | SMILES | Cell survival rate, RAW264.7 (RAW264.7 cells) [%] | MIC Escherichia coli ATCC25922 [1] [µg/mL] | MIC Staphylococcus aureus ATCC29213 [2] [µg/mL] | Cell survival rate, MAC-T (MAC-T cells) [%] | Hemolytic rate, 50 μg/mL (sheep red blood cells) [%] | Hemolytic rate, 100 μg/mL (sheep red blood cells) [%] | Hemolytic rate, 150 μg/mL (sheep red blood cells) [%] | Hemolytic rate, 300 μg/mL (sheep red blood cells) [%] | MIC against S. aureus ATCC29213 and E. coli ATCC25922 (both strains together) (various microorganisms) [µg/mL]
1 | CC[C@@H](C)[C@@H](NC(=O)[C@H](CCCNC(=N)N)NC(=O)[C@H](CCCNC(=N)N)NC(=O)[C@H](Cc1ccccc1)NC(=O)[C@H](CC(C)C)NC(=O)[C@H](CCCNC(=N)N)NC(=O)[C@@H](N)CCCNC(=N)N)C(=O)N[C@@H](CC(C)C)C(=O)N[C@@H](CCCNC(=N)N)C(=O)N[C@@H](Cc1c[nH]c2ccccc12)C(=O)N[C@@H](CC(C)C)C(N)=O [RW-BP100-7D] (HELM PEPTIDE1{R.R.L.F.R.R.[dI].L.R.W.L.[am]}$$$$V2.0) | 93.74 ± 1.25 | 25 (≈ 15.8 µM) | 25 (≈ 15.8 µM) | 96.41 ± 3.75 | 0.53 ± 1.12 | 1.11 ± 0.19 | 16.17 ± 3.36 | 45.65 ± 5.13 | 
2 | CC[C@H](C)[C@H](NC(=O)[C@@H](CCCNC(=N)N)NC(=O)[C@H](CCCNC(=N)N)NC(=O)[C@H](Cc1ccccc1)NC(=O)[C@H](CC(C)C)NC(=O)[C@H](CCCNC(=N)N)NC(=O)[C@@H](N)CCCNC(=N)N)C(=O)N[C@@H](CC(C)C)C(=O)N[C@@H](CCCNC(=N)N)C(=O)N[C@@H](Cc1c[nH]c2ccccc12)C(=O)N[C@@H](CC(C)C)C(N)=O [RW-BP100-6D] (HELM PEPTIDE1{R.R.L.F.R.[dR].I.L.R.W.L.[am]}$$$$V2.0) | 5.92 ± 2.63 | 12 (≈ 7.58 µM) | 12 (≈ 7.58 µM) | 58.87 ± 3.45 | 2.33 ± 1.51 | 3.25 ± 0.23 | 32.57 ± 1.20 | 55.81 ± 2.87 | 3 to 12
3 | CC[C@H](C)[C@H](NC(=O)[C@H](CCCNC(=N)N)NC(=O)[C@H](CCCNC(=N)N)NC(=O)[C@H](Cc1ccccc1)NC(=O)[C@H](CC(C)C)NC(=O)[C@H](CCCNC(=N)N)NC(=O)[C@@H](N)CCCNC(=N)N)C(=O)N[C@H](CC(C)C)C(=O)N[C@@H](CCCNC(=N)N)C(=O)N[C@@H](Cc1c[nH]c2ccccc12)C(=O)N[C@@H](CC(C)C)C(N)=O [RW-BP100-8D] (HELM PEPTIDE1{R.R.L.F.R.R.I.[dL].R.W.L.[am]}$$$$V2.0) | 20.30 ± 3.26 | 12 (≈ 7.58 µM) | 12 (≈ 7.58 µM) | 54.78 ± 2.65 | 0.91 ± 0.38 | 1.38 ± 0.58 | 26.19 ± 0.10 | 50.11 ± 3.17 | 3 to 12
4 | CC[C@H](C)[C@H](NC(=O)[C@H](CCCNC(=N)N)NC(=O)[C@H](CCCNC(=N)N)NC(=O)[C@H](Cc1ccccc1)NC(=O)[C@H](CC(C)C)NC(=O)[C@H](CCCNC(=N)N)NC(=O)[C@@H](N)CCCNC(=N)N)C(=O)N[C@@H](CC(C)C)C(=O)N[C@@H](CCCNC(=N)N)C(=O)N[C@@H](Cc1c[nH]c2ccccc12)C(=O)N[C@H](CC(C)C)C(N)=O [RW-BP100-11D] (HELM PEPTIDE1{R.R.L.F.R.R.I.L.R.W.[dL].[am]}$$$$V2.0) | 83.27 ± 4.56 | >50 | >50 | 77.81 ± 5.28 | 0.65 ± 0.60 | 1.42 ± 0.15 | 17.36 ± 1.92 | 46.97 ± 6.45 | > 50
5 | CC[C@H](C)[C@H](NC(=O)[C@H](CCCNC(=N)N)NC(=O)[C@H](CCCNC(=N)N)NC(=O)[C@H](Cc1ccccc1)NC(=O)[C@H](CC(C)C)NC(=O)[C@H](CCCNC(=N)N)NC(=O)[C@H](N)CCCNC(=N)N)C(=O)N[C@@H](CC(C)C)C(=O)N[C@@H](CCCNC(=N)N)C(=O)N[C@@H](Cc1c[nH]c2ccccc12)C(=O)N[C@@H](CC(C)C)C(N)=O [RW-BP100-1D] (HELM PEPTIDE1{[dR].R.L.F.R.R.I.L.R.W.L.[am]}$$$$V2.0) | 9.55 ± 2.45 | 12 (≈ 7.58 µM) | 25 (≈ 15.8 µM) | 52.71 ± 5.68 | 4.61 ± 0.47 | 5.49 ± 0.23 | 39.81 ± 0.20 | 52.88 ± 3.06 | 
